44 molecules from the Deep4Chem optical property database can be followed below.

A short description of the data set: photoluminescence quantum yield (fraction); solvent given as SMILES.

SMILES strings stand for the structures.

In the case of `CC(C)(C)c1ccc(C#Cc2c(C#Cc3ccc(C(C)(C)C)cc3)c3cccc4c(C#Cc5ccc(C(C)(C)C)cc5)c(C#Cc5ccc(C(C)(C)C)cc5)c5cccc2c5c34)cc1`, the photoluminescence quantum yield (in ClCCl) worked out at 0.7.

Molecule `Cc1nc(-c2cc(C(F)(F)F)ccc2O)n2c1CCCC2` came in with a photoluminescence quantum yield (in ClCCl) of 0.61.

`CC(=O)c1c(N[C@H](C(=O)O)C(C)C)c2ccc(N(C)C)cc2oc1=O`: the photoluminescence quantum yield (in ClCCl) stood at 0.004.

For `COCCOCCOCCOCC(COCCOCCOCCOC)Oc1cc(/C=C/c2ccc(C=C3C(=O)c4ccccc4C3=O)cc2)c(OC(COCCOCCOCCOC)COCCOCCOCCOC)cc1/C=C/c1ccc(C=C2C(=O)c3ccccc3C2=O)cc1`, the photoluminescence quantum yield (in ClCCl) came out at 0.23.

On to `CC(C)[Si](C#Cc1c2ccccc2c(C#C[Si](C(C)C)(C(C)C)C(C)C)c2nc3cc4c(cc3nc12)C1c2ccccc2C4c2ccccc21)(C(C)C)C(C)C`, for which the photoluminescence quantum yield by setting is: (in CCCCCC) 0.57; (in ClCCl) 0.76.

Turning to `O=C1c2ccccc2C(=O)C1C1C(=O)c2c3ccccc3cc3cc4ccccc4c1c23` (configuration not stated), the photoluminescence quantum yield reads like this: (in C1CCOC1) 0.294; (in CC#N) 0.139; (in CCCCCC) 0.339; (in Cc1ccccc1) 0.356; (in ClCCl) 0.247.

`N#CC(C#N)=Cc1ccc2c(c1)c1ccccc1n2-c1cc2ccccc2c2ccccc12`: the photoluminescence quantum yield reads like this: (in CC#N) 0.09; (in CCCCC) 0.16; (in Cc1ccccc1) 0.16; (in ClCCl) 0.04.

For `F[B-]1(F)n2c(-c3ccccc3)c3ccc4ccccc4c3c2N=C2c3c(ccc4ccccc34)C(c3ccccc3)=[N+]21`, under “in ClCCl”, the photoluminescence quantum yield came to 0.14.

For the molecule `CCN(CC)c1ccc2cc(/C=C(\C#N)c3nc4ccccc4s3)c(=O)oc2c1`, the photoluminescence quantum yield is, setting by setting: (in C1COCCO1) 0.0043; (in CC#N) 0.0027; (in CCO) 0.0048; (in CCOC(C)=O) 0.0035; (in CN(C)C=O) 0.0122; (in CO) 0.0061. Further, the photoluminescence quantum yield runs as follows: (in CS(C)=O) 0.0104; (in Cc1ccccc1) 0.0036; (in ClCCl) 0.0033.

On to `COc1ccc(/C=C/C2=CC(/C=C/c3ccc(OC)c4ccccc34)=[O+][B-](F)(F)O2)c2ccccc12`, for which the photoluminescence quantum yield by setting is: (in CC#N) 0.12; (in CC(C)=O) 0.21; (in CCOC(C)=O) 0.31; (in CCOCC) 0.29; (in ClC(Cl)(Cl)Cl) 0.23; (in ClCCl) 0.39.

Consider `C=Cc1cc2ccc(N(CC)CC)cc2oc1=O`, for which the photoluminescence quantum yield (in CC#N) worked out at 0.98.

With `Nc1ccccc1C(=O)O`, the photoluminescence quantum yield (in C1CCCCC1) came out at 0.29; the photoluminescence quantum yield (in CC#N) amounted to 0.56; the photoluminescence quantum yield (in CC(C)=O) was 0.31; the photoluminescence quantum yield (in CCO) was 0.59; the photoluminescence quantum yield (in CS(C)=O) was 0.64; the photoluminescence quantum yield (in O) was 0.6. Also, the photoluminescence quantum yield was found to be 0.27 (in OCC(F)(F)F) and 0.39 (in c1ccccc1).

On to `c1ccc([Si]2(c3ccccc3)c3ccccc3-c3cc4c(cc32)-c2ccccc2[Si]4(c2ccccc2)c2ccccc2)cc1`, for which, under “in ClCCl”, the photoluminescence quantum yield worked out at 0.56.

As to `Cc1ccc(C2=C3C=CC(/C=C/c4ccccc4)=[N+]3[B-](F)(F)n3c(Cl)ccc32)cc1`, the photoluminescence quantum yield is, setting by setting: (in C1CCCCC1) 0.72; (in C1CCOC1) 0.56; (in C1COCCO1) 0.6; (in CCOC(C)=O) 0.57; (in CO) 0.55; (in Cc1ccccc1) 0.69. This molecule also displayed a photoluminescence quantum yield (in ClC(Cl)Cl) of 0.68.

Consider `N#CC1=C(N)n2c(=O)c3ccccc3c(=O)n2C1c1cccs1` (configuration not stated), for which the photoluminescence quantum yield (in CS(C)=O) is 0.08.

`c1cc2cc(c1)c1ccc3ccc4ccc(cc4c3c1)c1ccc3ccc4ccc(cc4c3c1)c1cccc2c1`: where the note is “in Cc1ccccc1”, the photoluminescence quantum yield turned out to be 0.92.

Take `COc1ccc(-n2nc(C#N)c(N3CCCC3)n2)cc1`: the photoluminescence quantum yield runs as follows: (in CC#N) 0.936; (in CO) 0.98.

Under “in ClCCl”, `CC(C)(C)c1ccc(-c2cnc3cccc(-c4ccccc4)n23)cc1` had a photoluminescence quantum yield of 0.31.

As for `Cc1cc(O)c(-c2[nH]c(=O)n3c2-c2ccccc2C3=O)cc1Cl`, the photoluminescence quantum yield runs as follows: (in CC#N) 0.56; (in CO) 0.3; (in ClCCl) 0.61.

On to `CN1C(C(=O)Nc2ccccn2)=C([O-])c2sccc2S1(=O)=O`, for which the photoluminescence quantum yield came out at 0.0112 (in CCCCO), 0.0085 (in CCCO), 0.00451 (in CCO) and 0.00214 (in CO).

Regarding `COc1ccc2c(c1)-c1cc(OC)ccc1C2=O`, the photoluminescence quantum yield was 0.0028 (in C1CCCCC1), 0.028 (in CC#N) and 0.002 (in CCO).

In turn, `N#Cc1nc(N(Cc2ccc(Br)cc2)Cc2ccc(Br)cc2)c(C#N)nc1N(Cc1ccc(Br)cc1)Cc1ccc(Br)cc1` displayed a photoluminescence quantum yield (in ClC(Cl)Cl) of 0.71.

Turning to `c1ccc(-c2cc3cc4cccc5c(-c6ccccc6)cc6cc7cccc2c7c3c6c45)cc1`, for the setting “in ClCCl”, the photoluminescence quantum yield came to 0.33.

`C/C(=N\Nc1ccc(C#N)cc1)c1ccccn1` gave a photoluminescence quantum yield (in CO) of 0.28.

In turn, `Nc1cccc[nH+]1` returned a photoluminescence quantum yield (in O) of 0.64.

`CCOC(=O)c1cc(C(=O)OCC)c2cc(NC(=O)C(F)(F)F)ccc2n1` had a photoluminescence quantum yield (in CCO) of 0.34.

On to `COC(=O)C(NC(=O)OC(C)(C)C)c1ccc2oc(-c3cccc(Oc4ccccc4)c3)nc2c1` (configuration not stated), for which the photoluminescence quantum yield was 0.5 (in CC1CCCCC1), 0.37 (in CC#N) and 0.13 (in CO).

The molecule `N#CC(C#N)=Cc1ccc(-c2ccc(N(c3ccccc3)c3ccccc3)cc2)cc1` returned a photoluminescence quantum yield (in ClC(Cl)Cl) of 0.19.

With `COc1cccc(C2=c3c(c4ccc(C(C)(C)C)cc4c4cc(C(C)(C)C)ccc34)=[N+]3C2=C(c2ccccc2)c2c(-c4cccc(OC)c4)c4c5ccc(C(C)(C)C)cc5c5cc(C(C)(C)C)ccc5c4n2[B-]3(F)F)c1`, the photoluminescence quantum yield runs as follows: (in C1CCCCC1) 0.62; (in C1CCOC1) 0.5; (in CC#N) 0.52; (in Cc1ccccc1) 0.43; (in ClCCl) 0.54.

In the case of `CC1=CC(/C=C/c2ccccc2)=[N+]2C1=C(c1ccccc1)c1c(C)cc(/C=C/c3ccccc3)n1[B-]2(F)F`, the photoluminescence quantum yield (in Cc1ccccc1) amounted to 0.59.

Regarding `O=C(O)c1ccc2ccc3cccc4ccc1c2c34`, the photoluminescence quantum yield runs as follows: (in C1CCOC1) 0.57; (in CC#N) 0.11; (in CCCCCC) 0.56; (in CCO) 0.038; (in CN(C)C=O) 0.003; (in CO) 0.097. The photoluminescence quantum yield runs as follows: (in Cc1ccccc1) 0.73; (in ClCCl) 0.63.

In the case of `CN(C)c1ccc2c(-c3cc(C(=O)[O-])ccc3C(=O)[O-])c3ccc(=[N+](C)C)cc-3oc2c1`, the photoluminescence quantum yield (in CCO) is 0.59 and the photoluminescence quantum yield (in O) was 0.45.

Regarding `O=C(Nc1ccccc1[N+](=O)[O-])c1ccc2oc(-c3cc4ccccc4oc3=O)nc2c1`, the photoluminescence quantum yield (in ClCCl) was 0.12.

With `Cc1cc(=O)oc2cc3cc(-c4cn(Cc5ccccc5)nn4)ccc3cc12`, the photoluminescence quantum yield (in CCO) amounted to 0.02.

For `COc1ccc(C2=[N+]3C(=Nc4c(-c5ccc6ccccc6c5)cc(-c5ccc(OC)cc5)n4[B-]3(F)F)C(c3ccc4ccccc4c3)=C2)cc1`, the photoluminescence quantum yield (in ClCCl) came out at 0.34.

For `CC1=CC(C)=[N+]2C1=C(c1ccc(I)cc1)c1c(C)cc(C)n1[B-]21OCCO1`, for the setting “in ClC(Cl)Cl”, the photoluminescence quantum yield was 0.14.

As to `Cc1ccc2c(c1)nc1c(=O)n(C)c(=O)nc-1n2C`, the photoluminescence quantum yield (in CC#N) was determined as 0.43.

Under “in Cc1ccccc1”, `CCCCOC(=O)c1cc(Cl)c2c3c(Cl)cc4c5c(cc(Cl)c(c6c(Cl)cc(C(=O)OCCCC)c1c26)c53)C(=O)N(c1c(C(C)C)cccc1C(C)C)C4=O` gave a photoluminescence quantum yield of 0.89.

`O=C1/C(=C/C=C/c2cc3c4c(c2)CCCN4CCC3)CC/C1=C\C=C\c1cc2c3c(c1)CCCN3CCC2` yielded a photoluminescence quantum yield (in CC#N) of 0.037; a photoluminescence quantum yield (in CC(C)=O) of 0.092; a photoluminescence quantum yield (in CC(C)O) of 0.07; a photoluminescence quantum yield (in CCCCCC) of 0.13; a photoluminescence quantum yield (in CCCCO) of 0.061; a photoluminescence quantum yield (in CCCO) of 0.042. Further, the photoluminescence quantum yield is, setting by setting: (in CCO) 0.026; (in CCOC(C)=O) 0.1; (in CCOCC) 0.26; (in CN(C)C=O) 0.053; (in CO) 0.026; (in CS(C)=O) 0.062. Besides, the photoluminescence quantum yield amounted to 0.3 (in Cc1ccccc1); 0.15 (in ClCCl); 0.008 (in OCC(F)(F)F); 0.078 (in S=C=S); 0.3 (in c1ccccc1); 0.17 (in c1ccncc1).

Turning to `COc1ccc(-c2cc(-c3ccc(N(C)C)cc3)nc(-c3ccccc3)n2)cc1`, for the setting “in ClC(Cl)Cl”, the photoluminescence quantum yield turned out to be 0.49.

On to `c1ccc(N(c2ccccc2)c2ccc(N(c3ccccc3)c3ccc4ccc5c(N(c6ccccc6)c6ccc(N(c7ccccc7)c7ccccc7)cc6)ccc6ccc3c4c65)cc2)cc1`, for which the photoluminescence quantum yield (in ClCCl) was 0.13.

The molecule `N#CC1=c2cc3c4c(c2Oc2c1cc1c5c2CCCN5CCC1)CCC[N+]=4CCC3` showed a photoluminescence quantum yield (in CCO) of 0.25.

Regarding `N#Cc1cccc(-c2pc3ccccc3s2)c1` (configuration not stated), the photoluminescence quantum yield (in CC#N) was determined as 0.015.

With `F[B-]1(F)Oc2ccccc2-c2c3c(c4c([n+]21)CCc1ccccc1-4)CCc1ccccc1-3`, the photoluminescence quantum yield (in ClCCl) stood at 0.11.
